This is an account of results in PMC7073229, “Novel Quinoline Compounds Active in Cancer Cells through Coupled DNA Methyltransferase Inhibition and Degradation” (Cancers, 2020).

The test system of one test is F21T G-quadruplex DNA. Nature of the test: FRET melting assay, G-quadruplex DNA. The test is classed as binding. Here is the method:
(§1) Experimental procedure for Fluorescence Resonance Energy Transfer (FRET) melting assay Oligonucleotides labeled at 5’ with FAM (6-carboxyfluorescein) as donor fluorophore and TAMRA (6 - carboxytetramethylrhodamine) at 3’ as the acceptor fluorophore were purchased from STAB VIDA (Portugal). Each oligonucleotide was initial ly diluted to 100 µM in water (Molecular Biology Reagent, Sigma). Stock solutions of 20 µM and subsequent dilutions were made with FRET buffer (60 mM KCl, potassium cacodylate, pH 7.4). Tagged oligonucleotides at 0.4 µM were annealed by heating at 90 -95 °C for 10 min, followed by slow cooling to room temperature. St ock solutions of compounds (1 mM) were prepared in 10% DMSO. Subsequent dilutions were performed using FRET buffer. Annealed DNA (50 µL) and test compound solutions (50 µL) were distributed across 96-well RT-PCR plates (PCR-96-FLT-C, Axygen, Inc). Fluorescence readings (performed in a 7300 RT -PCR equipment from Applied Biosystems) were taken at intervals of 0.5 °C in the range 31 –95 °C, with the temperature being maintained for 30 seconds prior to each reading. Experiments were performed in triplicate. Fina l analysis of the data was carried out with GraphPad Prism v.5.0 (GraphPad Software Inc., La Jolla, CA, USA).
(§2) The advanced curve-fitting function in GraphPad Prism (nonlinear regression fit) was used for calculation of ΔTm values. Only results with fitting r2 values > 0.75 (std error < 0.25) were considered.
(§3) Table S2. Synthetic oligonucleotides used in FRET experiments.

The subject of a further test is KRAS21R G-quadruplex DNA. Nature of the test: FRET melting assay, G-quadruplex DNA. The test is classed as binding. Here is the method: as §1, §2, §3
Test [1] relates to HeLa epithelial cervix carcinoma. Nature of the test: Antiproliferative activity, MTT. It counts as cell-based. Particulars: Homo sapiens, 48 h treatment, read-out: Antiproliferative Activity (IC50 ± SD) HeLa. Here is the method:
(§4) U937 histiocytic lymphoma, HL60 acute promyelocytic leukemia, H1299 lung adenocarcinoma, MCF7 breast carcinoma, HT1080 fibrosarcoma, M14 melanoma, HeLa epithelial cervix carcinoma and peripheral blood B lymphocyte AHH1 human cell lines were obtained from the Deutsche Sammlung für Mikroorganismen and Zellkulturen (DSZM, Braunschweig, Germany) and were maintained in RPMI 1640 medium contained 10% fetal bovine serum (FBS), 2 mM L-glutamine, and antibiotics in a humidified atmosphere with 5% CO2 at 37 °C. HCT116 (ATCC, VA, USA) cells were propagated in Dulbecco’s modified Eagle medium (DMEM) (Euroclone, Milan, Italy) with 10% fetal bovine serum (FBS; Euroclone, Milan, Italy), 2 mM L-glutamine (Euroclone, Milan, Italy), and antibiotics (100 U/mL penicillin, 100 µg/mL streptomycin) (Euroclone, Milan, Italy). The experiments were performed with early (3–20) cell passages. Cell lines were treated with compounds at the indicated concentrations in the exponential growth phase.
(§5) Then, increasing concentrations of different compounds (ranging from 0.01 to 100 μM) were added, and cell proliferation was evaluated by a MTT assay after 48 h. Cells exposed to DMSO were used as control. The effect of compounds was evaluated using the CellTiter-Glo luminescent cell viability assay (Promega, Madison, WI, USA) according to the manufacturer’s instructions. For HCT116, 5 × 10^4 cells/well were plated in 24-well plate and treated, in duplicate, with compounds at several concentrations for 24 and 48 h of induction. After treatments, MTT solution was added for 3 h at 0.5 mg/mL, the obtained crystals were dissolved in DMSO (Sigma-Aldrich, Milan, Italy), and the absorbance was read at a wavelength of 570 nm with reader TECAN M-200. All the experiments were performed in triplicate and repeated at least three times.
(§6) IC50 values of compounds against cellular viability were determined by using nonlinear regression fitting curves with GraphPad Prism 8. The t-test used for statistical analyses was performed with GraphPad Prism 8. All the tests were one-tailed and a p-value < 0.05 was considered statistically significant.

The subject of a further test is HL60 APL cells. Nature of the test: Antiproliferative activity, MTT. The following applies: Homo sapiens, HL-60, 48 h treatment, read-out: Antiproliferative Activity (IC50 ± SD) HL60. The test is classed as cell-based. Here is the method: as §4, §5, §6
Test [2] concerns HT1080 human fibrosarcoma. Nature of the test: Antiproliferative activity, MTT. The test is classed as cell-based. The following applies: HT-1080, 48 h treatment, read-out: Antiproliferative Activity (IC50 ± SD) HT1080. Here is the method: as §4, §5, §6
The next test deals with U937 AML cells. Kind of test: Antiproliferative activity, MTT. It counts as cell-based. Particulars: Homo sapiens, U-937, 48 h treatment, read-out: Antiproliferative Activity (IC50 ± SD) U937. The procedure:
as §4, §5, §6

The test system of test [3] is H1299 human non-small cell lung carcinoma. Kind of test: Antiproliferative activity, MTT. It counts as cell-based. Particulars: 48 h treatment, read-out: Antiproliferative Activity (IC50 ± SD) H1299. Here is the method:
as §4, §5, §6

The subject of test [4] is MCF-7 human breast adenocarcinoma. Nature of the test: Antiproliferative activity, MTT. It counts as cell-based. The following applies: MCF7, 48 h treatment, read-out: Antiproliferative Activity (IC50 ± SD) MCF-7. Here is the method: as §4, §5, §6
Test [5] concerns HCT116 human colorectal carcinoma. Nature of the test: Antiproliferative activity, MTT. It counts as cell-based. Particulars: HCT-116, 48 h treatment, read-out: Antiproliferative Activity (IC50 ± SD) HCT116. The procedure: as §4, §5, §6
A further test concerns M14 human melanoma. Kind of test: Antiproliferative activity, MTT. It counts as cell-based. Particulars: 48 h treatment, read-out: Antiproliferative Activity (IC50 ± SD) M14. Here is the method:
as §4, §5, §6

A further test deals with U937 cells. Nature of the test: Sub-G1 peak, cell cycle flow cytometry. It counts as cell-based, human. Particulars: U937, 1 µM; for effect on sub-G1 peaks vs untreated cells: 24 and 48 h. Here is the method: Cell cycle analysis was performed on 5 × 10^5 fixed cells resuspended in a RNase A (3 mg/mL) and propidium iodide (PI) solution (1 mg/mL). Samples were analyzed with a C6 Accuri BD (Becton Dickinson & Co., San Jose, CA, USA). The percentage of apoptosis was measured analyzing sub-G1 peaks. Apoptotic cell death was also evaluated by using annexin V–fluorescein isothiocyanate (FITC) apoptosis kit (BD Bioscience) and assayed according to the manufacturer’s instructions. Cells double-stained for both annexin V and PI were analyzed by flow cytometry. PI was used in conjunction with annexin V–FITC to distinguish cells in the earlier stages of apoptosis (annexin V-FITC positive, PI negative) from those in later stages of apoptosis or that were already dead (annexin V–FITC positive, PI positive). Percentage of cells positive for caspase-3 activation was evaluated by Active Caspase-3 Apoptosis Kit (BD biosciences, Milan, Italy) according to the manufacturer’s instructions.

Where two headings read alike, the source gives them in different places.

As for `O=C(Nc1ccc(Nc2ccnc3ccccc23)cc1)c1cccc(Nc2ccnc3ccccc23)c1` [Compound 2a], the “F21T ∆Tm” value is reported as 0 ºC with F21T G-quadruplex DNA (5 µM) and 5.1 ºC with F21T G-quadruplex DNA (10 µM). For the same compound, the “KRAS ∆Tm” value is reported as 0 ºC in the test on KRAS21R G-quadruplex DNA (5 µM) and 6.4 ºC with KRAS21R G-quadruplex DNA (10 µM). Moreover, the IC50 came to 140 ± 40 nM in test [1]; 200 ± 30 nM with HL60 APL cells; 500 ± 90 nM in [2]; 700 ± 90 nM in the test with U937 AML cells; 14700 ± 2300 nM in test [3]; 15000 nM in [3] (Homo sapiens, NCI-H1299, 48 h). In addition, the IC50 in test [4] was 4100 ± 700 nM; in test [5], 1000 ± 200 nM; in the test on M14 human melanoma it was 500 ± 80 nM. In addition, in the test with U937 cells (48 h), the “percentage of sub-G1 peak” value was found to be 62%.
Regarding `O=C(Nc1cccc(Nc2ccnc3ccccc23)c1)c1cccc(Nc2ccnc3ccccc23)c1` [Compound 2b], the “F21T ∆Tm” value in the test with F21T G-quadruplex DNA (5 µM) is 2.8 ºC; in the test with F21T G-quadruplex DNA (10 µM), 5.0 ºC. Moreover, the entries for the “KRAS ∆Tm” value with KRAS21R G-quadruplex DNA (5 µM) and in the test on KRAS21R G-quadruplex DNA (10 µM) were 1.0 ºC and 7.7 ºC, respectively. The IC50 in [1] was 2000 ± 300 nM; in the test with HL60 APL cells it was 1600 ± 200 nM; in test [2], 2700 ± 400 nM; in the test with U937 AML cells it was 1500 ± 100 nM; in test [3] (Homo sapiens, NCI-H1299, 48 h), 5300 ± 900 nM; in test [4], 300 ± 60 nM. For the same compound, the values for the IC50 (in [5]; in the test on M14 human melanoma) were 1500 ± 300 nM and 4700 ± 600 nM, respectively.
Consider `O=C(Nc1cccc(Nc2ccnc3ccccc23)c1)c1ccc(Nc2ccnc3ccccc23)cc1` [Compound 2c], for which the “F21T ∆Tm” value in the test on F21T G-quadruplex DNA (5 µM) is recorded as 1 ºC; with F21T G-quadruplex DNA (10 µM) it was 1.2 ºC. Further, the entries for the “KRAS ∆Tm” value in the test with KRAS21R G-quadruplex DNA (5 µM) and in the test with KRAS21R G-quadruplex DNA (10 µM) were 0 ºC and 3.4 ºC, respectively. The IC50 in [1] was found to be 4200 ± 800 nM; in the test on HL60 APL cells, 1900 ± 300 nM; in test [2], 2600 ± 600 nM; in the test on U937 AML cells, 1500 ± 100 nM; in test [3] (Homo sapiens, NCI-H1299, 48 h), 14000 ± 1800 nM; in test [4], 2200 ± 400 nM. Besides, the IC50 was 2300 ± 500 nM in test [5] and 3800 ± 700 nM with M14 human melanoma.
`O=C(Nc1ccc(NC(=O)c2cccc(Nc3ccnc4ccccc34)c2)cc1)OCc1ccccc1` [Compound 4a]: the “F21T ∆Tm” value is on record as 0 ºC in the test on F21T G-quadruplex DNA (5 µM) and 4.3 ºC in the test with F21T G-quadruplex DNA (10 µM). For the same compound, the “KRAS ∆Tm” value in the test with KRAS21R G-quadruplex DNA (5 µM) is on record as 2.5 ºC; with KRAS21R G-quadruplex DNA (10 µM), 4.6 ºC. Moreover, the IC50 was 77000 ± 7900 nM in [1]; 300 ± 60 nM with HL60 APL cells; 19500 ± 2800 nM in test [2]; 500 ± 80 nM in the test with U937 AML cells; 45000 ± 4100 nM in [3] (Homo sapiens, NCI-H1299, 48 h); 23900 ± 2600 nM in test [5]. In addition, the IC50 in the test on M14 human melanoma was determined as 69000 ± 8100 nM. Also, the “effect on sub-G1 peaks vs untreated cells” value with U937 cells is recorded as “very low”.
On to `O=C(Nc1cccc(NC(=O)c2ccc(Nc3ccnc4ccccc34)cc2)c1)OCc1ccccc1` [Compound 4c], for which the “F21T ∆Tm” value in the test with F21T G-quadruplex DNA (5 µM) is 0.8 ºC; with F21T G-quadruplex DNA (10 µM) it was 1.5 ºC. In addition, the “KRAS ∆Tm” value with KRAS21R G-quadruplex DNA (5 µM) is 1.0 ºC; in the test with KRAS21R G-quadruplex DNA (10 µM), 2.6 ºC. Also, the IC50 in test [1] worked out at 7400 ± 1200 nM; in the test with HL60 APL cells, 300 ± 70 nM; in test [2], 3900 ± 800 nM; in the test on U937 AML cells, 1200 ± 200 nM; in test [3] (Homo sapiens, NCI-H1299, 48 h), 6900 ± 900 nM; in test [5] it was 17700 ± 2400 nM. Also, the IC50 with M14 human melanoma was 4500 ± 800 nM. Also, the “effect on sub-G1 peaks vs untreated cells” value in the test with U937 cells is given as “no”.
